Consider 14 compounds from patent US7074789B2, “Kinase inhibitors” (Amgen Inc., priority 1999, dated 2006).

Holding throughout (type): biochemical
Experiment [1] has as its target T1, Lck (Homo sapiens, UniProt P06239).
T1 construct: Kinases are expressed as either kinase domains or full length constructs; made in house
Description: Kinase inhibition assay (33P transfer), Lck. The following applies: Table 3, class symbols; read-out: Lck-1. The method in brief: (§1)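 Each kinase, expressed as a GST- or polyHis-tagged domain or full-length protein, phosphorylated plate-attached poly(Glu,Tyr) 4:1 or poly(Arg,Ser) 3:1 using 33P-ATP. Bound radioactivity was measured by scintillation after a 0.5% phosphoric acid wash.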

For experiment [2], the target named is T2, Zap-70 (Homo sapiens, UniProt P43403).
T2 construct: Kinases are expressed as either kinase domains or full length constructs; made in house
T2 sequence (P43403 1-619): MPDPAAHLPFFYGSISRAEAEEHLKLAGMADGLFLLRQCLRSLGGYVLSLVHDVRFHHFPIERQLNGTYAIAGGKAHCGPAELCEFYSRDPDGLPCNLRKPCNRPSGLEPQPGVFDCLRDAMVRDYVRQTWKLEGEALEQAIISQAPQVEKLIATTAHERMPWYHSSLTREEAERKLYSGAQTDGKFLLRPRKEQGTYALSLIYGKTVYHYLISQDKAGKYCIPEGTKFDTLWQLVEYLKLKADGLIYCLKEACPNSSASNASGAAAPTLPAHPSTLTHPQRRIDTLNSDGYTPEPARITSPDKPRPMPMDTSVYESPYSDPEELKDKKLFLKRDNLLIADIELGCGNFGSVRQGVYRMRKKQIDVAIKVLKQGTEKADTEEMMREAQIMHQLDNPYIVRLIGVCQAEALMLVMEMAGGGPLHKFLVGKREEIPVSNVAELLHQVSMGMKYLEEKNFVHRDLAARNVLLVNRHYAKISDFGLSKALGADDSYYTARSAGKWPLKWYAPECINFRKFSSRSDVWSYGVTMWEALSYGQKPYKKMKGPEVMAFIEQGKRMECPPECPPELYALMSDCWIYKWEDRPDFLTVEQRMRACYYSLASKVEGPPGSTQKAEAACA
Description: Kinase inhibition assay (33P transfer), Zap-70. The following applies: Table 3, class symbols; read-out: Zap-1. The method in brief: as §1

Experiment [3] addresses T3, Itk (Homo sapiens, UniProt Q08881).
T3 construct: Kinases are expressed as either kinase domains or full length constructs; made in house
T3 sequence (Q08881 1-620): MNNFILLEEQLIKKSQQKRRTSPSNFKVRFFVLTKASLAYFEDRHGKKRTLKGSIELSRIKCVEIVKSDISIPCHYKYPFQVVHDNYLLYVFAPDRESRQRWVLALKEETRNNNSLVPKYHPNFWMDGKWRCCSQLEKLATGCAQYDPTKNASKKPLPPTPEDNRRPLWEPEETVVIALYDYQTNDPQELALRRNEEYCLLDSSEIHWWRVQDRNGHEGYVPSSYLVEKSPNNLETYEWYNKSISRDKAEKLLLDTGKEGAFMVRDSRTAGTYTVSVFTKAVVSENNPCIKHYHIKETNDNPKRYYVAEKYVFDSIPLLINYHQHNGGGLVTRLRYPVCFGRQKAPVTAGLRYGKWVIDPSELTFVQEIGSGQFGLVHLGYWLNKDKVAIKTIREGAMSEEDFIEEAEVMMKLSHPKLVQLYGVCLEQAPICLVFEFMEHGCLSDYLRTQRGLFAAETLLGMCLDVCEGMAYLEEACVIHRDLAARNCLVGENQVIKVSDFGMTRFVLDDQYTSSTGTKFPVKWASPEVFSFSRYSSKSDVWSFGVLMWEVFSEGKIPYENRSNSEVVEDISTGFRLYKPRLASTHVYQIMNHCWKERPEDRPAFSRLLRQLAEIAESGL
Description: Kinase inhibition assay (33P transfer), Itk. The settings on record: Table 3, class symbols; read-out: Itk-1. In outline:
(§2)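 Using immobilised substrate copolymers (poly(Glu,Tyr) 4:1; poly(Arg,Ser) 3:1) and [33P]ATP, purified fusion kinases were allowed to react; plates were then rinsed in 0.5% phosphoric acid and counted in a scintillation detector. Half-maximal inhibition of label transfer defines IC50.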

Experiment [4] deals with T4, EGFR (Homo sapiens, UniProt P00533).
T4 construct: Kinases are expressed as either kinase domains or full length constructs; made in house
Description: Kinase inhibition assay (33P transfer), EGFR. The settings on record: Table 2, class symbols A-E; read-out: EGFR-1. In outline:
as §2

Experiment [5] has as its target T5, ErbB2 (Homo sapiens, UniProt P04626).
T5 construct: Kinases are expressed as either kinase domains or full length constructs; made in house
Description: Kinase inhibition assay (33P transfer), ErbB2. The following applies: read-out: ErbB2-2. The method in brief:
as §2

For experiment [6], the target named is T6, Kdr (Homo sapiens, UniProt P35968).
T6 construct: Kinases are expressed as either kinase domains or full length constructs; made in house
Description: Kinase inhibition assay (33P transfer), Kdr. The settings on record: Table 3, class symbols; read-out: KDR-1. In outline: as §1

Experiment [7] addresses T7, c-Met (Homo sapiens, UniProt P08581).
T7 construct: Kinases are expressed as either kinase domains or full length constructs; made in house
Description: Kinase inhibition assay (33P transfer), c-Met. The settings on record: Table 2, class symbols A-E; read-out: Met-1. In outline:
as §2

The target in experiment [8] is T8, AKT (Homo sapiens, UniProt Q9Y243).
T8 construct: Kinases are expressed as either kinase domains or full length constructs; made in house
Description: Kinase inhibition assay (33P transfer), AKT. The settings on record: Table 2, class symbols A-E; read-out: AKT3-1. The method in brief: as §1

Experiment [9] addresses T9, IGFR-1 (Homo sapiens, UniProt P08069).
T9 construct: Kinases are expressed as either kinase domains or full length constructs; made in house
Description: Kinase inhibition assay (33P transfer), IGFR-1. The settings on record: Table 2, class symbols A-E.

In experiment [10] the target is T10, PDGFRB (Homo sapiens, UniProt P09619).
T10 construct: Kinases are expressed as either kinase domains or full length constructs; made in house
Description: Kinase inhibition assay (33P transfer), PDGFRB. The following applies: read-out: PDGFRB-1.

The structures appear in SMILES notation.

T8 sequence (Q9Y243 whole entry, the tested form may be a part): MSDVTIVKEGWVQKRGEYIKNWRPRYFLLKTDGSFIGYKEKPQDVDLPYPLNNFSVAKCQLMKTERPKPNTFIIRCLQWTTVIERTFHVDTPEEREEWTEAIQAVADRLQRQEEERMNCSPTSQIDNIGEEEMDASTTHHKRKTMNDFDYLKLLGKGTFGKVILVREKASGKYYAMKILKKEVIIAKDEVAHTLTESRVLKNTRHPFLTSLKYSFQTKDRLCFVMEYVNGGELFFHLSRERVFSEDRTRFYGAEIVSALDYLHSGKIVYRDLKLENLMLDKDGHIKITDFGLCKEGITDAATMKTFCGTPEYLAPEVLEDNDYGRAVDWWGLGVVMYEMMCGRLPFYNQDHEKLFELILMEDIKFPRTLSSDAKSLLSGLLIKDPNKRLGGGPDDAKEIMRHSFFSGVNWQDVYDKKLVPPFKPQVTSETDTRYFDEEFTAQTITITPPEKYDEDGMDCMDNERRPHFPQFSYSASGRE
T1 sequence (P06239 whole entry, species assumed, the tested form may be a part): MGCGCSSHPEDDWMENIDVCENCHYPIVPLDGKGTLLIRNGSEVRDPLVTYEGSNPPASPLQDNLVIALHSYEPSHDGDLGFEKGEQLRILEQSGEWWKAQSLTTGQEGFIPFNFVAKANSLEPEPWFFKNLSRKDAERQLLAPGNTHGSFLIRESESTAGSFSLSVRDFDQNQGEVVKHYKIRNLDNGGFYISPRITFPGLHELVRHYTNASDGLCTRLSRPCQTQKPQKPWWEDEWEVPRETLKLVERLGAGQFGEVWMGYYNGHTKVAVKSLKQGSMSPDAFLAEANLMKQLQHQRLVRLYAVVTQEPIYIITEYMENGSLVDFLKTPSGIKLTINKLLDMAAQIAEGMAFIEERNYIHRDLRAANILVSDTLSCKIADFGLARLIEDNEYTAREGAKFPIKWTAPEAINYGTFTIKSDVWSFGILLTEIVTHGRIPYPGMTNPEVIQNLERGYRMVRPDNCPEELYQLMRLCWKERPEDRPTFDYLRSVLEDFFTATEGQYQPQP
T4 sequence (P00533 25-1210, species assumed): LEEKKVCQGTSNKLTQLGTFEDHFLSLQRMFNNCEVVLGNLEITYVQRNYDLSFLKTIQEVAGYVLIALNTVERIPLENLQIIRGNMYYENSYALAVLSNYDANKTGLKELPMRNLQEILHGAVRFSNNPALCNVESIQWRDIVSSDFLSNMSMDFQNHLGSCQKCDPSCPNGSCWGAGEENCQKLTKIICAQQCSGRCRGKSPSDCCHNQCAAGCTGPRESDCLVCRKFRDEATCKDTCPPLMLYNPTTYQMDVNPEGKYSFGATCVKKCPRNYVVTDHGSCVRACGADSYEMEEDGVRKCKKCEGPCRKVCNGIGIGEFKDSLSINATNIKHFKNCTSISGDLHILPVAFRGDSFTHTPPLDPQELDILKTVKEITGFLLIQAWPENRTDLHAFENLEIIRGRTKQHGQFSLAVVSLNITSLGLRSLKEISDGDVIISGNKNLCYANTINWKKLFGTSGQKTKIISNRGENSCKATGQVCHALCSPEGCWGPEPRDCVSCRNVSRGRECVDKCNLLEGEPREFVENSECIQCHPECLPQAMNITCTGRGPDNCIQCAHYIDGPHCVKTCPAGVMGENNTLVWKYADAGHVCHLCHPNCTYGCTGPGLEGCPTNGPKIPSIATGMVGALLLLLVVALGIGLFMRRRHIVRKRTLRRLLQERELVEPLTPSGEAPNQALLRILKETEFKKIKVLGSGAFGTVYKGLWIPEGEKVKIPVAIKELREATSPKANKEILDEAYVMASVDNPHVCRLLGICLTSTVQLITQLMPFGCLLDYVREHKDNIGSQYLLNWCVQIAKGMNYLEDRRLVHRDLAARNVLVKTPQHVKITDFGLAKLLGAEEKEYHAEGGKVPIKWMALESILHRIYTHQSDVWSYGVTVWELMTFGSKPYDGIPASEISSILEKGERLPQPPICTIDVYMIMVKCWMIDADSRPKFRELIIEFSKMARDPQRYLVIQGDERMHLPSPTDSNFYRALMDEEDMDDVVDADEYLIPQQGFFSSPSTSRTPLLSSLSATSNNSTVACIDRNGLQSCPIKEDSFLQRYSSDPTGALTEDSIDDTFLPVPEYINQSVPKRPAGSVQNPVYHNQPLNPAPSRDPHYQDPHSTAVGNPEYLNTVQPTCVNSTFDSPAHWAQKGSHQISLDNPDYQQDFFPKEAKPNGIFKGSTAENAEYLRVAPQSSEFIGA
T5 sequence (P04626 23-1255, species assumed): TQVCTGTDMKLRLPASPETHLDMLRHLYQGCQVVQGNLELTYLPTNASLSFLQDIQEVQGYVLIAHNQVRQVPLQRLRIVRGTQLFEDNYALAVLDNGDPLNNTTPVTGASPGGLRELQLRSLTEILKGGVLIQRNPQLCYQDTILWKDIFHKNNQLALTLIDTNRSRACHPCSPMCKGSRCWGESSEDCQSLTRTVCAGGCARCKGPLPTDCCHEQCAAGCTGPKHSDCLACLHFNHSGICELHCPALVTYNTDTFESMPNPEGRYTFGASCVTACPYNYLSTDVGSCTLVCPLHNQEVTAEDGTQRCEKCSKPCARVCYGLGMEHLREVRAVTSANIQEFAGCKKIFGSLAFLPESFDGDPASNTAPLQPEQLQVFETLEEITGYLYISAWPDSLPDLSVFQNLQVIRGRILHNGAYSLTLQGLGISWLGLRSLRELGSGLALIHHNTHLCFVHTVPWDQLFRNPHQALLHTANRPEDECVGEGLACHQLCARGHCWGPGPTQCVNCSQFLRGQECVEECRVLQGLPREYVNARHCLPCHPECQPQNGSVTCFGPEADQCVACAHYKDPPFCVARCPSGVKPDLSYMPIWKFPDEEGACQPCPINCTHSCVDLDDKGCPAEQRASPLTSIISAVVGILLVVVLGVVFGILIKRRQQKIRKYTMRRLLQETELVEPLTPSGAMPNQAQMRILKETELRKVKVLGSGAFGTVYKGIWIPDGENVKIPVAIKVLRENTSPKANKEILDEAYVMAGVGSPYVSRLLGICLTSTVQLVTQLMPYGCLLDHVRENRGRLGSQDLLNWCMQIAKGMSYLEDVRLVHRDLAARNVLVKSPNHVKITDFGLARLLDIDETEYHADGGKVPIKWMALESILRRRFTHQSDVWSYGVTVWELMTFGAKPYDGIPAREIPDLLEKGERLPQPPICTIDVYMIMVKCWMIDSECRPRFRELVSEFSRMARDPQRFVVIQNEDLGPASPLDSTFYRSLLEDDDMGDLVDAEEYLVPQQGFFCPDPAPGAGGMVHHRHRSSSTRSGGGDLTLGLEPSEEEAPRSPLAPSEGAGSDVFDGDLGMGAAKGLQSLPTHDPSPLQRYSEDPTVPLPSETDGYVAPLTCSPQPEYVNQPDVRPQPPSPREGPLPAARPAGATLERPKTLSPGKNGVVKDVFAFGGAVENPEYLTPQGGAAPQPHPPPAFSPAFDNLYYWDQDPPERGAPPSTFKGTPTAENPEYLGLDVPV
T7 sequence (P08581 25-1390): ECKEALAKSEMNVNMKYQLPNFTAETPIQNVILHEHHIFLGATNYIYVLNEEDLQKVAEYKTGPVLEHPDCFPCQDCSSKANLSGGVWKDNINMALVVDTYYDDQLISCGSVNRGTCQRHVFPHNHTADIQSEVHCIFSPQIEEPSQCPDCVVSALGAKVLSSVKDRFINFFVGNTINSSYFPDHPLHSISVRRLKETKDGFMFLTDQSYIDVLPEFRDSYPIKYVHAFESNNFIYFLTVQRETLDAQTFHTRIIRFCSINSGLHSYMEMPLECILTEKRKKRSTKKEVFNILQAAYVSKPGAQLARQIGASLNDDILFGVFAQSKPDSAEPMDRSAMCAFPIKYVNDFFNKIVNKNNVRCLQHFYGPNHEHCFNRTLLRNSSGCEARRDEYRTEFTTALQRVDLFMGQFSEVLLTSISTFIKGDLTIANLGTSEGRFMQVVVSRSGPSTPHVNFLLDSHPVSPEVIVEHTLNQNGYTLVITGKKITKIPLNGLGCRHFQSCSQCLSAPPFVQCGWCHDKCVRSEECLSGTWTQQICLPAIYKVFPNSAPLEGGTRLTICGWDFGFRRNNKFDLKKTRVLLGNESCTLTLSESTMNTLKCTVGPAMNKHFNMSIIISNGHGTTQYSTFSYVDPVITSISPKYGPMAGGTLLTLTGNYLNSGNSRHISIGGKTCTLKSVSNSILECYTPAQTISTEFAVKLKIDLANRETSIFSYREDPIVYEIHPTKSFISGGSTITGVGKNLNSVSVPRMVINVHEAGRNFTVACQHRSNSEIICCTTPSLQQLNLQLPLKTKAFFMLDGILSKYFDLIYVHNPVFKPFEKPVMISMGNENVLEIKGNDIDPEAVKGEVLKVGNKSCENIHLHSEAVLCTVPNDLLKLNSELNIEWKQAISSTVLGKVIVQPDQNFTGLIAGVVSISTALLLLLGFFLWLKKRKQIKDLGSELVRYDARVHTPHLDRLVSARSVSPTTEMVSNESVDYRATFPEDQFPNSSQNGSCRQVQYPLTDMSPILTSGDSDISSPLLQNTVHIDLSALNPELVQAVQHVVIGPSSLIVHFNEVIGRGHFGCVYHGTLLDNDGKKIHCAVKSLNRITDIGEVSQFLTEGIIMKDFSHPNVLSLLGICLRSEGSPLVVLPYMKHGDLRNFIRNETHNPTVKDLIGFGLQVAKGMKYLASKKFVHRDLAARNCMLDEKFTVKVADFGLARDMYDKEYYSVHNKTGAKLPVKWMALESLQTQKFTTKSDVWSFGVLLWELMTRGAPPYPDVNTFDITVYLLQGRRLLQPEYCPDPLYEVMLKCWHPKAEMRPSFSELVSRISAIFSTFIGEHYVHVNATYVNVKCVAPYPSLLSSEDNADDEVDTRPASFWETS

With `COc1ccc(Nc2ncnc(N(C)C3CCCCC3)n2)cc1OC` [Compound 796], the IC50 in experiment [1] is below 1.16 µM; in [2], above 13.1 µM; in [3], 6.99 to 10.2 µM; in experiment [4] it was below 1.16 µM; in [5] it was 6.99 to 10.2 µM; in experiment [6], 10.2 to 13.1 µM. Also, the IC50 in [7] was 1.16 to 6.99 µM; in experiment [8], above 13.1 µM; in [9], above 13.1 µM; in experiment [10] it was 1.16 to 6.99 µM.
`Cc1ccc(Cl)cc1Nc1ncnc(N2c3ccc(F)cc3CCC2C)n1` (centres unmarked) [Compound 644]: the IC50 in experiment [1] was above 11.7 µM; in experiment [2], above 11.7 µM; in experiment [3] it was 9.12 to 11.7 µM; in [4] it was 1.04 to 6.25 µM; in experiment [5] it was above 11.7 µM; in experiment [6] it was 1.04 to 6.25 µM. The IC50 in experiment [7] was 1.04 to 6.25 µM; in [8], above 11.7 µM; in experiment [9] it was above 11.7 µM; in experiment [10], 1.04 to 6.25 µM.
Regarding `CC(C)Nc1ncccc1-c1ncnc(Nc2cccc(Cn3ccnn3)c2)n1` [Compound 1098], the IC50 in experiment [1] was 1.03 to 6.19 µM; in experiment [2], above 11.6 µM; in experiment [3], 1.03 to 6.19 µM; in experiment [4], 6.19 to 9.03 µM; in [5], above 11.6 µM; in experiment [6] it was 1.03 to 6.19 µM. Moreover, the IC50 in experiment [7] was 6.19 to 9.03 µM; in [8] it was 6.19 to 9.03 µM; in experiment [9], above 11.6 µM; in experiment [10], 1.03 to 6.19 µM.
For `COc1cc(Nc2ncnc(-c3cccnc3Nc3ccc(C(C)=O)cc3)n2)cc(OC)c1OC` [Compound 832], the IC50 in experiment [1] was above 9.52 µM; in experiment [2] it was above 9.52 µM; in experiment [3], above 9.52 µM; in experiment [4] it was above 9.52 µM; in experiment [5] it was above 9.52 µM; in [6] it was 0.847 to 5.08 µM. Also, the IC50 in [7] is 0.847 to 5.08 µM; in [8] it was above 9.52 µM; in experiment [9], above 9.52 µM; in experiment [10], above 9.52 µM.
As for `COc1cc(Nc2ncnc(-c3cccnc3NCc3cccc4ccccc34)n2)cc(OC)c1OC` [Compound 844], the IC50 in [1] is above 9.1 µM; in experiment [2] it was above 9.1 µM; in experiment [3], above 9.1 µM; in [4], above 9.1 µM; in experiment [5] it was 0.809 to 4.85 µM; in experiment [6] it was below 0.809 µM. For the same compound, the IC50 is above 9.1 µM in experiment [7], above 9.1 µM in [8], 4.85 to 7.08 µM in [9] and 0.809 to 4.85 µM in [10].
On to `COc1cccc(CCNc2ncnc(Nc3ccc4c(cnn4Cc4ccccc4)c3)n2)c1OC` [Compound 873], for which the IC50 in experiment [1], in [2], in experiment [3], in experiment [4], in experiment [5] and in [6] was above 9.34 µM each time. The IC50 in experiment [7], in experiment [8], in experiment [9] and in experiment [10] was above 9.34 µM each time.
`c1ccc(CNc2nc3ccccc3n2-c2ncnc(Nc3cccc(Cn4ccnn4)c3)n2)nc1` [Compound 962]: the IC50 in experiment [1] is 0.841 to 5.05 µM; in experiment [2], above 9.46 µM; in [3] it was above 9.46 µM; in experiment [4] it was 5.05 to 7.36 µM; in experiment [5] it was 7.36 to 9.46 µM; in experiment [6], below 0.841 µM. In addition, the IC50 in experiment [7] is above 9.46 µM; in [8], above 9.46 µM; in [9] it was 7.36 to 9.46 µM; in experiment [10], below 0.841 µM.
As for `COC(=O)c1ccc(-c2cc(Nc3ncnc(NCc4cccs4)n3)[nH]n2)cc1` [Compound 877], the IC50 is above 11 µM in experiment [1]; above 11 µM in experiment [2]; 0.982 to 5.89 µM in experiment [3]; 5.89 to 8.59 µM in experiment [4]; above 11 µM in [5]; above 11 µM in [6]. In addition, the IC50 was 0.982 to 5.89 µM in experiment [7], above 11 µM in [8], 8.59 to 11 µM in experiment [9] and 0.982 to 5.89 µM in experiment [10].
Regarding `COc1ccc(Nc2ncnc(N(C)c3ccc4c(cnn4Cc4ccccc4)c3)n2)cc1OC` [Compound 669], the IC50 in experiment [1] was 0.856 to 5.13 µM; in [2], above 9.62 µM; in experiment [3], above 9.62 µM; in experiment [4], below 0.856 µM; in experiment [5], below 0.856 µM; in experiment [6] it was 0.856 to 5.13 µM. In addition, the IC50 in [7] was 7.49 to 9.62 µM; in [8], above 9.62 µM; in experiment [9], above 9.62 µM; in [10], 0.856 to 5.13 µM.
As to `COC(=O)c1ccc(-c2cc(Nc3ncnc(NCc4ccco4)n3)[nH]n2)cc1` [Compound 805], the IC50 is above 11.5 µM in [1]; above 11.5 µM in experiment [2]; 6.13 to 8.94 µM in experiment [3]; above 11.5 µM in [4]; above 11.5 µM in experiment [5]; above 11.5 µM in experiment [6]. Also, the IC50 in experiment [7] is 6.13 to 8.94 µM; in experiment [8] it was above 11.5 µM; in experiment [9] it was 6.13 to 8.94 µM; in experiment [10], above 11.5 µM.
On to `COc1ccc(Nc2ncnc(Nc3ccc(N4CCCCC4)cc3)n2)cc1OC` [Compound 899], for which the IC50 is 0.984 to 5.9 µM in experiment [1]; above 11.1 µM in experiment [2]; 0.984 to 5.9 µM in [3]; 0.984 to 5.9 µM in experiment [4]; 0.984 to 5.9 µM in experiment [5]; 0.984 to 5.9 µM in experiment [6]. Further, the IC50 was 0.984 to 5.9 µM in experiment [7], 5.9 to 8.61 µM in experiment [8], 5.9 to 8.61 µM in experiment [9] and below 0.984 µM in experiment [10].
As to `CCN(c1cccc(Cl)c1)c1ncnc(Nc2cc(OC)cc(OC)c2)n1` [Compound 724], the IC50 was 1.04 to 6.22 µM in experiment [1]; above 11.7 µM in experiment [2]; 1.04 to 6.22 µM in experiment [3]; below 1.04 µM in experiment [4]; 1.04 to 6.22 µM in [5]; 1.04 to 6.22 µM in [6]. Moreover, the IC50 was 1.04 to 6.22 µM in experiment [7], above 11.7 µM in experiment [8], 1.04 to 6.22 µM in experiment [9] and 1.04 to 6.22 µM in [10].
Regarding `COc1cccc(Nc2ncccc2-c2ncnc(Nc3cc(OC)c(OC)c(OC)c3)n2)c1` [Compound 829], the IC50 in experiment [1] was above 9.77 µM; in experiment [2] it was above 9.77 µM; in [3] it was above 9.77 µM; in [4], 7.6 to 9.77 µM; in experiment [5], 0.869 to 5.21 µM; in experiment [6], below 0.869 µM. For the same compound, the IC50 was above 9.77 µM in [7], above 9.77 µM in experiment [8], above 9.77 µM in experiment [9] and 0.869 to 5.21 µM in [10].
In the case of `CN(c1cccc(Cl)c1)c1ncnc(Nc2ccc(OC(F)(F)F)cc2)n1` [Compound 874], the IC50 was above 11.4 µM in experiment [1]; above 11.4 µM in experiment [2]; above 11.4 µM in [3]; 1.01 to 6.06 µM in [4]; above 11.4 µM in [5]; above 11.4 µM in experiment [6]. The IC50 in experiment [7], in experiment [8], in experiment [9] and in experiment [10] was above 11.4 µM each time.
